Test system: traumatic rib fracture patients
Assay: Retrospective review of traumatic rib fracture patients: intravenous ibuprofen plus narcotics versus narcotics alone
Type: in vivo, human

CC(C)Cc1ccc(C(C)C(=O)O)cc1 (stereo not drawn) [ibuprofen, 2-(4-isobutylphenyl) propionic acid]
daily narcotic requirement, Treatment Group versus Control Group (Day 1 or Day 2): did not differ | complications associated with ibuprofen therapy (Treatment group): no significant complications | daily narcotic requirement, Treatment Group versus Control Group (each of Days 3 through 7 (p<0.05)): significantly decreased
